Key:
SIRT1 = target: T1, SIRT1 (Homo sapiens, UniProt Q96EB6); assay: SIRT1 p53-382 IC50 assay; format: biochemical
T1 sequence (Q96EB6 1-747): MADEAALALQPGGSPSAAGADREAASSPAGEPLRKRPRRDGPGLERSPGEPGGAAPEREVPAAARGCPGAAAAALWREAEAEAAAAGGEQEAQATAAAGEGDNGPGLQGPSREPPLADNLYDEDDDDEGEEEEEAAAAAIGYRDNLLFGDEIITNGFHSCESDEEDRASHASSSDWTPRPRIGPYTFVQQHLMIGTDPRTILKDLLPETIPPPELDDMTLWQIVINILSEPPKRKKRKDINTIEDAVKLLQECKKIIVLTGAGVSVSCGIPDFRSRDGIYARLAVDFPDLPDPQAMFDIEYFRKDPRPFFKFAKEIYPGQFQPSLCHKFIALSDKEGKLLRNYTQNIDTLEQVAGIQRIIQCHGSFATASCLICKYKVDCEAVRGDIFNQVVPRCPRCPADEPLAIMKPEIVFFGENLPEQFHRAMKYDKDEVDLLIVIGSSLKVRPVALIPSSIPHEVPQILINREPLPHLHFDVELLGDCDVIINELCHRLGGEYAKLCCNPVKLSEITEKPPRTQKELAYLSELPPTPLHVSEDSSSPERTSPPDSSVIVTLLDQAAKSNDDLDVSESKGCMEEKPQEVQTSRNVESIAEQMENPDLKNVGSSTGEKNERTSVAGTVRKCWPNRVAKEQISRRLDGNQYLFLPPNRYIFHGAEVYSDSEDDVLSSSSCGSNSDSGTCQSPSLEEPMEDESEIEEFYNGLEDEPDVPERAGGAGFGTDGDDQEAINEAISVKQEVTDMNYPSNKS

[1] = test system: SFRP1 and SFRP2 genes in MCF7 cells; assay: RT-PCR re-expression of silenced tumor suppressor genes in MCF7 cells; format: cell-based, human; settings: sirtuin inhibitors, data not shown
Description: (§1) Cell culture and retroviral infection. MDA-MB-231, MCF7, HCT116, SW480 RKO, and Phoenix cells (ATCC, Rockville, Md., United States) were cultured in Dulbecco's modified Eagle's medium supplemented with 10% fetal bovine serum and 1% penicillin/streptomycin (Invitrogen, Carlsbad, Calif., United States). Retroviral infection was performed using either single or multiple rounds of infection. Briefly, Phoenix cells were transfected with either pBabe, pBabe-SIRT1H363Y, pSUPERretro, pSUPERretro-SIRT1-RNAi-1-3 (NM_012238 positions 410, 589, and 1091; Oligo Engine, Seattle, Wash., United States) using Lipofectamine 2000 (Invitrogen). After 48 h of transfection, the medium containing retrovirus was collected, filtered, and supplemented with Polybrene prior to infection of target cells (MDA-MB-231, MCF7, or HCT116). Infected cells were either harvested 24-48 hours later or subjected to selection with 2-3 μg/ml puromycin for a week prior to harvest and analysis.
(§2) RNA and protein preparation and analysis. Total RNA was extracted (Invitrogen) according to the manufacturer's instructions and subjected to reverse transcription followed by both quantitative real-time and semi-quantitative polymerase chain reaction. For quantitative real-time analyses, the QuantiTect SYBR Green PCR kit (Qiagen, Valencia, Calif., United States) was used and the amplification conditions consisted of an initial 10-minutes denaturation step at 95° C., followed by 40 cycles of denaturation at 95° C. for 15 s and annealing and extension for 30 seconds and 60 seconds, respectively. A BioRad iCycler was used (BioRad, Hercules, Calif., United States), and for quantitation the comparative cycle threshold (Ct) method was used, normalizing the Ct values for the indicated gene to the Ct values of GAPDH relative to a control sample. For conventional PCR, at least two independent sets of intron-spanning primers were used for the analysis of multiple genes, such as CRBP1, (NM_002899), E-cadherin, (L34545), SFRP1, (BC036503), SFRP2, (BC008666), and Gata-4 (L34357). For Western blots, cells stably expressing RNAi constructs were harvested in 50 mM Tris-HCl, 1% NP-40, 0.25% sodium deoxycholate, 150 mM NaCl, 50 mM sodium fluoride, 1 mM dithiothreitol, 1 mM AEBSF, 1× Complete protease inhibitor cocktail (Roche, Basel, Switzerland). Protein concentrations were measured by BCA (Pierce Biotechnology, Rockford, Ill., United States). […] On the same blot, β-actin (Sigma, St. Louis, Mo., United States) was probed to ensure equal loading.

[2] = test system: SFRP1, SFRP2, E-cadherin, CRBP1 genes in MDA-MB-231 cells; assay: RT-PCR re-expression of silenced tumor suppressor genes in MDA-MB-231 cells; format: cell-based, human
Description: The panels of FIG. 2 are as follows. […] MDA-MB-231 cells were treated with 15 mM NIA or 300 μM SPT for 21 hours, RNA was isolated, and RT-PCR was performed with intron-spanning primers specific for the indicated genes. Control samples in which no reverse transcriptase was added were analyzed separately, and all were negative for amplification of the indicated genes. […] MDA-MB-231 cells were treated with either 50 nM Aza (+), 100 μM SPT (+) or with both Aza and SPT (++), and 34 hours later, RT-PCR was performed for the indicated genes as described in FIG. 2(A). […] MDA-MB-231 cells were treated with either 0, 50, 100, or 120 μM SPT alone for 34 hours, or the treatment was followed by treatment with 300 nM TSA for 3 hours prior to RNA isolation and RT-PCR analysis. […] MDA-MB-231 cells were infected with low titers of virus for shRNA specific for SIRT1. Aza (100 nM) was added 24 hours prior to RNA isolation, and RT-PCR analysis was performed for the genes SFRP 1, SFRP2, and GAPDH as described in FIG. 2(A). […] As shown in the left panel, MDA-MB-231 cells were infected with a control (vec) or mutant SIRT1 virus (HY), and RT-PCR was performed as described in FIG. 2(A). MDA-MB-231 cells were infected with low titers of pBabe or pBabe-SIRT1H363Y retrovirus and subsequently treated with 100 nM Aza for 24 hours or with 300 nM TSA for 3 hours prior to harvest, and RT-PCR was performed.
as §1, §2

[3] = test system: β-catenin-responsive TCF reporter (Wnt pathway) in RKO cells; assay: β-catenin-responsive TCF reporter assay; format: cell-based, human; settings: 700 μM SPT for 24 hours
Description: The panels of FIG. 6. […] Error bars indicate standard deviation from the average of three experiments. FIG. 6(B) provides the results obtained from experiments in which RKO cells were transfected with 500 ng of pGL3-OT, a TCF-LEF-responsive reporter, or pGL3-OF, a negative control with a mutated TCF-LEF binding site in combination with 10 ng of pRL-CMV vector. Twenty-four hours post-transfection, cells were treated with either vehicle (DMSO) control or with 700 μM SPT for 24 hours. Firefly luciferase activity was measured and normalized to the Renilla luciferase activities. The experiments shown in FIG. 6(C) were performed as described in FIG. 6(A), in which pooled populations of MDA-MB-231 cells stably expressing RNAi-2 or RNAi-3 were harvested, protein concentrations were determined, and Western blot analysis was performed. An antibody that specifically recognizes the unphosphorylated (active) form of β-catenin was used, and on the same blot, β-actin was probed to ensure equal loading. […]
Reporter assays were performed as described previously using the β-catenin-responsive TCF reporter and the cyclin D1 reporter. […] According to the manufacturer's instructions, Firefly luciferase activity was measured via a luminometer (BD Biosciences) and normalized to the Renilla luciferase activities by using the Dual Luciferase Reporter System (Promega, Madison, Wis., United States).

[4] = test system: cyclin-D1 promoter reporter in RKO cells; assay: β-catenin-responsive cyclin-D1 promoter reporter assay; format: cell-based, human; settings: SPT treatment, data not shown
Description: Reporter assays were performed as described previously using the β-catenin-responsive TCF reporter and the cyclin D1 reporter. Briefly, prior to transfection, RKO cells were plated in six-well tissue culture dishes and grown until they reached 80%-90% confluence. Cells were transfected with 500 ng of pGL3-OT, a TCF-LEF-responsive reporter, or pGL3-OF, a negative control with a mutated TCF-LEF binding site in combination with 10 ng of pRL-CMV vector. Twenty-four hours post-transfection, cells were treated with either vehicle (DMSO) control or with 700 μM SPT for 24 hours. According to the manufacturer's instructions, Firefly luciferase activity was measured via a luminometer (BD Biosciences) and normalized to the Renilla luciferase activities by using the Dual Luciferase Reporter System (Promega, Madison, Wis., United States).

Row | Compound | IC50 (SIRT1) [µM] | re-expression of epigenetically silenced, hypermethylated TSGs [1] | re-expression of the gene panel, single agent at low dose ([2]; Aza (50 nM) or SPT (50 μM) alone) | re-expression of epigenetically silenced, hypermethylated TSGs incl. CRBP1 ([2]; MDA-MB-231 cells, 15 mM NIA or 300 μM SPT for 21 hours) | reduction in the activation of a β-catenin-responsive TCF reporter construct [3] [%] | reduction in the activation of a β-catenin-responsive cyclin-D1 promoter reporter construct [4] [%]
1 | O=C(NO)C1CCCc2c1[nH]c1ccc(Cl)cc21 (stereo not drawn) [Compound 7, 6-Chloro-2,3,4,9-tetrahydro-1H-carbazole-1-carboxylic acid hydroxyamide] | > 10 | – | – | – | – | –
2 | O=C1CCc2c(ccc3ccccc23)O1 [SPT, splitomicin, reference compound] | – | could cause the re-expression | ineffective as single agents | could cause the re-expression | 50 | 50
